Measurements reported in PMC11326411, “PET imaging of [52 Mn]Mn-DOTATATE and [52 Mn]Mn-DOTA-JR11” (Research Square, 2024).
Where a SMILES comes first, the peptide text is derived from it. Bridges are numbered along the chain shown (N, C = ends). [ ]: non-standard residue; d: D form. The star is where a group is joined. DOTA = O=C(O)CN1CCN(CC(=O)O)CCN(CC(=O)*)CCN(CC(=O)O)CC1; dPhe(4-NHCONH2) = NC(=O)Nc1ccc(C[C@@H](N)C(=O)O)cc1; Dihydroorotyl(S) = O=C1C[C@@H](C(=O)*)NC(=O)N1; Phe(4-Cl) = N[C@@H](Cc1ccc(Cl)cc1)C(=O)O; Phe(4-NH2) = Nc1ccc(C[C@H](N)C(=O)O)cc1

Legend:
SSTR2 + AR42J cells = experiment: Cell uptake in AR42J cells; assay type: cell-based, rat
Method: (§1) 1×10^5 AR42J, A549, and MCF-7 cells were seeded onto 24-well plates (n = 6) and incubated at 37°C 48 h before study. […] The cells were incubated at 37°C under 5% CO2 for 2 h. Following incubation, the media was removed, and the cells were washed 3 times with ice-cold PBS. 500 μL of 0.2 M NaOH was added to detach the cells before collection into microcentrifugetubes followed by a 500 μL wash of PBS. Associated radioactivity was counted on a HIDEX (Turku, Finland) AGM gamma counter.
(§2) To normalize the counts to the total protein amount, a BCA protein assay (ThermoFisher Scientific) was performed, and the final data reported in % cell uptake/mg of protein.

AR42J cells = experiment: Cell internalization assay in AR42J cells; assay type: cell-based, rat; conditions: for internalization fraction (of total activity): 2 h incubation
Method: At each time point, the media was removed, and cells were washed 3 times with ice-cold PBS. To determine the surface bound fraction, 0.5 mL of 0.1 M citric acid (pH 5) was added to each well and incubated for 5 min. The fraction was collected into a microcentrifuge tube followed by addition of 0.5 mL gentle wash of PBS. To determine the internalized activity, 0.5 mL of 0.2 M NaOH was added to each well and incubated at 37°C for 5 min. This fraction was collected in a separate tube followed by addition of 0.5 mL of PBS wash. The final results were expressed as a percentage of the total activity that was present in each of the two fractions.

in vivo = conditions: mouse, total radioactivity, Biodistribution
Method: Subcutaneous tumor xenograft models for AR42J were established by implanting 1×10^6 cells in complete cell media subcutaneously into the right shoulder 3–4 weeks (tumor average diameter of between 5–7 mm) before study.
Mice (n = 4 per group) were anesthetized with 2.5% isoflurane in oxygen and were injected via the retroorbital sinus. After injection, at 4, 24, and 48 h, mice were imaged on a Sofie GNEXT PET/CT small animal scanner (Sofie Biosciences, Dulles, VA, USA). At each time point, 30 min of PET data were acquired followed by a 3-min CT at 80 kVp for anatomical reference. At each time point post imaging, mice were euthanized, and organs were collected, weighed, and counted for associated radioactivity on gamma counter. Radioactivity uptake was calculated as the percent injected dose per gram of tissue (% ID/g).

[1] = Stability of the radioligands in mouse serum; conditions: 37°C, 5 days post incubation, radio-TLC
Method: At the specified time points, 40 μL of serum/radioligand mixture was collected and combined with an equal amount of methanol to separate serum proteins, as described in a previously published protocol on metabolite extraction and protein removal [19]. The supernatant was analyzed using both radio TLC and radio HPLC, as described above to determine the percentage intact complex.

A549 cells = experiment: Cell uptake in A549 cells; assay type: cell-based, human; conditions: A549, 0.5 nM, 2 h, 37°C, per mg protein; Fig. 3A study
Method: as §1, §2

MCF-7 cells = experiment: Cell uptake in MCF-7 cells; assay type: cell-based, human; conditions: MCF-7, 0.5 nM, 2 h, 37°C, per mg protein; Fig. 3A study
Method: as §1, §2

[2] = 2 h incubation at 37°C, comparative study Fig. 4A

## C[C@@H](O)[C@@H]1NC(=O)[C@H](CCCCN)NC(=O)[C@@H](Cc2ccc(NC(N)=O)cc2)NC(=O)[C@H](Cc2ccc(NC(=O)[C@@H]3CC(=O)NC(=O)N3)cc2)NC(=O)[C@H](NC(=O)[C@H](Cc2ccc(Cl)cc2)NC(=O)CN2CCN(CC(=O)O)CCN(CC(=O)O)CCN(CC(=O)O)CC2)CSSC[C@@H](C(=O)N[C@H](Cc2ccc(O)cc2)C(N)=O)NC1=O [[^52Mn]Mn-DOTA-JR11] ({DOTA}-[Phe(4-Cl)][dC][Phe(4-NH2)](Dihydroorotyl(S))[dPhe(4-NHCONH2)]KTC[dY]-NH2; disulfide 2-7 (inferred); C-terminus assumed)
SSTR2 + AR42J cells; [2]
  cell uptake: 7.13 ± 0.38 %/ mg
AR42J cells
  total activity internalized: 20.85 ± 0.59%
  internalization fraction (of total activity): 20.85 ± 0.59%

## C[C@@H](O)[C@H](NC(=O)[C@@H]1CSSC[C@H](NC(=O)[C@@H](Cc2ccccc2)NC(=O)CN2CCN(CC(=O)O)CCN(CC(=O)O)CCN(CC(=O)O)CC2)C(=O)N[C@@H](Cc2ccc(O)cc2)C(=O)N[C@H](Cc2c[nH]c3ccccc23)C(=O)N[C@@H](CCCCN)C(=O)N[C@@H]([C@@H](C)O)C(=O)N1)C(=O)O [[^52Mn]Mn-DOTATATE]
In vivo; Blood (μL)
  tissue uptake at 4 h: 0.91 ± 0.05 %ID/g
In vivo; Fat
  tissue uptake at 4 h: 0.52 ± 0.19 %ID/g
In vivo; Small Intestines
  tissue uptake at 4 h: 1.32 ± 0.46 %ID/g
[1]
  intact complex: > 95%
SSTR2 + AR42J cells; 0.5 nM, 2 h, 37°C, per mg protein, Fig. 3A study
  cell uptake: 18.25 ± 1.31 % /mg
SSTR2 + AR42J cells; [2]
  cell uptake: 11.95 ± 0.71 %/ mg
A549 cells
  cell uptake: 4.07 ± 0.88 % /mg
AR42J cells
  total activity internalized: 53.13 ± 1.83%
  internalization fraction (of total activity): 53.13 ± 1.83%
MCF-7 cells
  cell uptake: 2.30 ± 0.20 % /mg
